In US8080423B2, “Reagent containing protease reaction promoter and/or colorant stabilizer” (Asahi Kasei Pharma Corporation, priority 2004, dated 2011):
Several values for one entry are separate records, joined by “and”; a condition that tells them apart may be missing. Equal entries are not always repeated. Where two headings read alike, the source gives them in different places.

Assays:
[1] = tested on: Neutral protease (manufactured by Toyobo Co., Ltd.); experiment: Screening of protease reaction promoter (Example 1); assay type: biochemical; conditions: for protease reaction promoting effect (in words): judged from Table 1
Procedure: 1) R-1: Reagent for Protein Decomposition
2) R-2: Reagent for Glycated Amino Acid Detection
The following substances were independently used as a test sample. Note that concentrations described in parentheses each represent a final concentration of the substance in the reagent R1.
Absorbance before the addition of the reagent R-2 and 5 minutes after the addition was measured at 660 nm. […] The AH-AL shown in Table 1 is a difference obtained by subtracting absorbance AL which was obtained from the primary calibrator at level 2 (5.38%) from absorbance AH which was obtained from the primary calibrator at level 4 (9.88%). Here, if AH-AL is large, the sample is judged to have a protease reaction promoting effect. In particular, when AH-AL is 20 or more, the sample has an excellent promoting effect.

[2] = Screening of stabilizer for colorant, MBTH-TOOS (Example 13); assay type: physicochemical
[3] = Screening of stabilizer for colorant, DA64 (Example 13); assay type: physicochemical; conditions: DA-64, 750 nm, 37° C., additives at conc. (1%; IDA 1 mM; Zn, Al 0.1 mM; ferrocyanide 0.01 mM; sorbitol 5%; DMSO 10%)
Procedure: (§1) The following substances were used as test samples. Note that concentrations described in parentheses each represent a final concentration of the substance in the reagent R-1.
(§2) Tween-20 (1%), Brij35 (1%), Triton X-100 (1%), deoxycholic acid (1%), imino-diacetic acid (IDA; 1 mM), ZnSO4 (0.1 mM), AlCl3 (0.1 mM), potassium ferrocyanate (0.01 mM), sorbitol (5%), glucose (5%), sodium nitrite (2 mM), dimethylsulfoxide (DMSO; 10%) (those substances are manufactured by Wako Pure Chemical Industries, Inc.), 2-hydroxypropyl-β-cyclodextrin (2HP β CD; 0.5%, 2%, 5%) and methyl-β-cyclodextrin (M β CD; 0.5%, 2%, 5%) (those substances are manufactured by Nihon Shokuhin Kako Co., Ltd.).
(§3) 500 μl of the R-1 reagent and 500 μl of the R-2 which had been incubated to 37° C. were mixed. The mixture was incubated to 37° C. for 2 minutes, and absorbance thereof (A0) was measured. The mixture was added with 10 μl of 500 μM hydrogen peroxide or distilled water. The whole was incubated to 37° C., and absorbance exactly 5 minutes after the addition of hydrogen peroxide (A1) was measured, to calculate a change in absorbance ΔA (A1-A0). The absorbance was measured using a wavelength of 750 nm when DA64 was used as the colorant, a wavelength of 660 nm when DA67 was used as the colorant, and a wavelength of 570 nm when 4-AA-TOOS was used as the colorant.
(§4) Immediately after the preparation of the reagent, the reagent was preserved at 37° C. for 2 days and 9 days, and measurement of sensitivity of a blank which was distilled water and of hydrogen peroxide was performed.

[4] = Screening of stabilizer for colorant, DA67 (Example 13); assay type: physicochemical
Procedure: as §1, §2, §3, §4

[5] = test sample 1% in R-1, 660 nm, 20 or more = excellent promoting effect
[6] = test sample 2 mM in R-1, 660 nm

Compound | AH (absorbance from primary calibrator at level 4 (9.88%)) ([1]; test sample 1% in R-1, 660 nm) | AL (absorbance from primary calibrator at level 2 (5.38%)) ([1]; test sample 1% in R-1, 660 nm) | AH − AL [1, 5] | protease reaction promoting effect (in words) [1] | also measured
CCCCCCCCCCCC[N+](C)(C)CC(=O)[O-] [AM-301, betaine lauryl dimethylaminoacetate] | 122.0 | 109.9 | 12.1 mAbs |  | 
Nc1ncnc2c1ncn2[C@@H]1O[C@H](COP(=O)(O)OP(=O)(O)OP(=O)(O)O)[C@@H](O)[C@H]1O [ATP, adenosine 5′-triphosphate, reference compound] |  |  |  |  | AH (absorbance from primary calibrator at level 4 (9.88%)) [1, 6]: 57.8; AH − AL [1, 6]: 3.6 mAbs; AL (absorbance from primary calibrator at level 2 (5.38%)) [1, 6]: 54.2
[Cl][Al]([Cl])[Cl] [AlCl3] |  |  |  |  | AH (absorbance from primary calibrator at level 4 (9.88%)) [1]: 60.7; AH − AL [1]: 5.6 mAbs; AL (absorbance from primary calibrator at level 2 (5.38%)) [1]: 55.1; blank (distilled water) change in absorbance [2]: 0.045 Abs and 0.055 Abs and 0.058 Abs; change in absorbance when 500 μM of hydrogen peroxide was measured [2]: 0.005 and 0.009
C[C@H](CCC(=O)NCCC[N+](C)(C)CCCS(=O)(=O)[O-])[C@H]1CC[C@H]2[C@@H]3[C@H](O)C[C@@H]4C[C@H](O)CC[C@]4(C)[C@H]3C[C@H](O)[C@]12C [CHAPS, 3-[(3-cholamidopropyl)dimethyl-ammonio]propanesulfonic acid, reference compound] | 111.4 | 104.5 | 6.9 mAbs |  | 
C[S+](C)[O-] [Dimethylsulfoxide, dimethylsulfoxide, reference compound] |  |  |  |  | AH (absorbance from primary calibrator at level 4 (9.88%)) ([1]; test sample 10% in R-1, 660 nm): 63.0; AH − AL ([1]; test sample 10% in R-1, 660 nm): 3.4 mAbs; AL (absorbance from primary calibrator at level 2 (5.38%)) ([1]; test sample 10% in R-1, 660 nm): 59.6; blank (distilled water) change in absorbance ([3]; 0 days): −0.005 Abs; blank (distilled water) change in absorbance ([3]; 2 days): 0.085 Abs; blank (distilled water) change in absorbance ([3]; 9 days): 0.233 Abs; blank (distilled water) change in absorbance ([4]; DA-67, 660 nm, 37° C., 0 days, additives at conc. (1%; IDA 1 mM; Zn, Al 0.1 mM; ferrocyanide 0.01 mM; sorbitol 5%; DMSO 10%)): 0.088 Abs; blank (distilled water) change in absorbance ([4]; DA-67, 660 nm, 37° C., 2 days, additives at conc. (1%; IDA 1 mM; Zn, Al 0.1 mM; ferrocyanide 0.01 mM; sorbitol 5%; DMSO 10%)): 2.103 Abs; blank (distilled water) change in absorbance ([2]; MBTH-TOOS, 570 nm, 37° C., 0 days, additives at conc. (1%; IDA 1 mM; Zn, Al 0.1 mM; ferrocyanide 0.01 mM; sorbitol 5%; DMSO 10%)): 0.149 Abs; blank (distilled water) change in absorbance ([2]; MBTH-TOOS, 570 nm, 37° C., 2 days, additives at conc. (1%; IDA 1 mM; Zn, Al 0.1 mM; ferrocyanide 0.01 mM; sorbitol 5%; DMSO 10%)): 1.134 Abs
CCCCCCCCCCCCCOCCOCCOCCOCCOCCOCCOCC(=O)[O-].[Na+] [ECTD-6NEX, sodium polyoxyethylene(6)tridecyl ether acetate] | 82.9 | 53.4 | 29.5 mAbs | effects were observed | 
Cc1cc2nc3c(=O)[nH]c(=O)nc-3n(C[C@H](O)[C@H](O)[C@H](O)COP(=O)(O)OP(=O)(O)OC[C@H]3O[C@@H](n4cnc5c(N)ncnc54)[C@H](O)[C@@H]3O)c2cc1C [FAD, flavin adenine dinucleotide, reference compound] |  |  |  |  | AH (absorbance from primary calibrator at level 4 (9.88%)) [1, 6]: 46.2; AH − AL [1, 6]: 0.7 mAbs; AL (absorbance from primary calibrator at level 2 (5.38%)) [1, 6]: 45.5
CCCCCCCCCCCC(=O)N(C)CCS(=O)(=O)[O-].[Na+] [LMT, sodium N-lauroyl methyl taurinate] | 102.4 | 73.0 | 29.4 mAbs | effects were observed | 
CCCCCCCCCCCCOP(=O)(O)O [Phosten HLP, lauryl phosphate] | 134.6 | 121.9 | 12.7 mAbs |  | 
CCCCCCCCCCCCOCCOCCOS(=O)(=O)O.OCCN(CCO)CCO [SBL-2T-36, triethanolamine polyoxyethylene(2)lauryl ether sulfate] | 93.3 | 65.3 | 28.0 mAbs | effects were observed | 
CCCCCCCCCCCCOCCOCCOCCOCCOS(=O)(=O)O.OCCN(CCO)CCO [SBL-4T, triethanolamine polyoxyethylene(4)lauryl ether sulfate] | 103.2 | 75.2 | 28.0 mAbs | effects were observed | 
CCCCCCCCCCCCOS(=O)(=O)[O-].[Na+] [SLS, sodium lauryl sulfate, reference compound] | 53.3 | 48.7 | 4.6 mAbs |  | 
O=NO [Sodium nitrite, sodium nitrite, reference compound] |  |  |  |  | AH (absorbance from primary calibrator at level 4 (9.88%)) [1]: 107.9; AH − AL [1]: 26.2 mAbs; AL (absorbance from primary calibrator at level 2 (5.38%)) [1]: 81.7
O=[N+]([O-])c1ccc(-[n+]2nc(-c3ccc(S(=O)(=O)O)cc3S(=O)(=O)O)nn2-c2ccc(I)cc2)c([N+](=O)[O-])c1 [WST-3, 2-(4-iodophenyl)-3-(2,4-dinitrophenyl)-5-(2,4-disulfophenyl)-2H-tetrazolium, reference compound] |  |  |  |  | AH (absorbance from primary calibrator at level 4 (9.88%)) [1, 6]: 184.6; AH − AL [1, 6]: 23.7 mAbs; AL (absorbance from primary calibrator at level 2 (5.38%)) [1, 6]: 160.9
O=S(=O)([O-])[O-].[Zn+2] [ZnSO4, reference compound] |  |  |  |  | AH (absorbance from primary calibrator at level 4 (9.88%)) [1]: 145.7; AH − AL [1]: 1.6 mAbs; AL (absorbance from primary calibrator at level 2 (5.38%)) [1]: 144.1; blank (distilled water) change in absorbance [4]: 0.051 Abs and 0.062 Abs and 0.050 Abs; blank (distilled water) change in absorbance [2]: 0.050 Abs and 0.049 Abs and 0.055 Abs; change in absorbance when 500 μM of hydrogen peroxide was measured [2]: 0.003
monostearate polyoxyethylene(15)glyceryl [TMGS-15] | 92.0 | 82.2 | 9.8 mAbs |  | 
sodium cocoyl sarcosinate [Sarcosinate CN-30] | 106.2 | 76.6 | 29.6 mAbs | effects were observed | 
sodium polyoxyethylene(3)tridecyl ether acetate [ECTD-3NEX] | 95.8 | 68.3 | 27.5 mAbs | effects were observed | 
triethanolamine polyoxyethylene(3)alkyl ether sulfate [SBL-203-27] | 112.1 | 84.3 | 27.8 mAbs | effects were observed | 
